Drawing on EP3722296B1, “DIHYDRONAPHTHYRIDINES AND RELATED COMPOUNDS USEFUL AS KINASE INHIBITORS FOR THE TREATMENT OF PROLIFERATIVE DISEASES” (Deciphera Pharmaceuticals, LLC, priority 2012, dated 2013), this text covers IC50 for 13 compounds.

Some results are limits rather than exact numbers.

Assay [1] deals with Phospho-KIT (Tyr719). Briefly: GIST48 KIT Western Blot. Format: cell-based. The settings on record: GIST48 cells, 4 hours, serum-free medium; read-out: pKIT suppression by western blot analysi GIST48. A digest of the protocol: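 Phospho-KIT (Tyr719) was immunoblotted on PVDF and imaged in fluorescence mode after ECL Plus, with stripping and reprobing for total KIT. IC50 values were derived from the blot signals.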

For assay [2], the target named is c-KIT kinase (Homo sapiens, UniProt P10721). Briefly: c-KIT kinase Assay. The arrangement: cKIT residues T544-V976; GST (N); TEV cleavage site (internal); purchased deCODE Biostructures. Conditions: enzymatic assay, ATP 200 µM; read-out: KIT (wt) IC50. The assay is classed as biochemical. A digest of the protocol:
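Activity of wild-type human c-KIT kinase was followed as NADH oxidation, read as falling absorbance at 340 nm on a Synergy 2 plate reader (BioTeK) for 2 hours at 30 °C. Rates from the 0 to 1 h window were compared with an uninhibited control to give percent inhibition. IC50 values were fitted in GraphPad Prism across a range of inhibitor concentrations.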

Assay [3] addresses T1, Phospho-KIT (Tyr719) (Homo sapiens, UniProt P10721, K642E).
T1 construct: endogenous in cells; host or cells: GIST882
Briefly: GIST882 KIT Western Blot. The assay is classed as cell-based. Conditions: GIST882 cells, 4 hours, serum-free medium; read-out: pKIT suppression by western blot analysi GIST 882. Here is the method:
GIST48, GIST430, and GIST882 cells were obtained from J. Fletcher (Brigham and Women's Hospital, Boston, MA). GIST T1 cells were obtained from B. Rubin (Cleveland Clinic, Cleveland, OH) and Professor Takahiro Taguchi (Kochi Medical School, Nankoku, Kochi, Japan). […] GIST430 cells were grown in Ham's F10 medium supplemented with 15% characterized fetal bovine serum (Invitrogen, Carlsbad, CA), 30 mg/L bovine pituitary extract (BD Biosciences, San Jose, CA), 0.5% Mito+ serum extender (BD Biosciences, San Jose, CA), 1 unit/mL penicillin G, 1 µg/ml streptomycin, and 0.29 mg/mL L-glutamine at 37 °C, 5%CO2, 95% humidity. GIST T1 cells were grown in DMEM medium supplemented with 10% characterized fetal bovine serum (Invitrogen, Carlsbad, CA), 1 unit/mL penicillin G, 1 µg/ml streptomycin, and 0.29 mg/mL L-glutamine at 37 °C, 5% CO2, and 95% humidity.
Two hundred fifty thousand cells were added per well in a 24-well tissue-culture treated plate. […] Medium was aspirated, cells were washed with PBS, and serum-free RPMI1640 medium was added. […] Cells were washed with PBS, then lysed. Cell lysates were separated by SDS-PAGE and transferred to PVDF. Phospho-KIT (Tyr719) was detected using an antibody from Cell Signaling Technology (Beverly, MA), ECL Plus detection reagent (GE Healthcare, Piscataway, NJ) and a Molecular Devices Storm 840 phosphorimager in fluorescence mode. Blots were stripped and probed for total KIT using an antibody from Santa Cruz Biotech (Santa Cruz, CA). IC50 values were calculated using Prism software (Graphpad, San Diego, CA).
Background: A western blot detects proteins with antibodies after separation by electrophoresis.

Assay [4] deals with Phospho-KIT (Tyr719). Put plainly: GIST430 KIT Western Blot. The assay is classed as cell-based. Conditions: GIST430 cells, 4 hours, serum-free medium; read-out: pKIT suppression by western blot analysi GIST430. A digest of the protocol:
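GIST430 cells were compound-treated in serum-free Ham's F10, then lysed. Phospho-KIT (Tyr719) was measured by western blot with fluorescence-mode ECL, and blots were reprobed for total KIT; IC50 derived from concentration response.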

Assay [5] concerns GIST T1 cells. Put plainly: GIST T1 Cell Proliferation Assay. The assay is classed as cell-based. Conditions: Homo sapiens, GISTT1, 72 h, 68 hours + 4 hours resazurin. For orientation: Resazurin is reduced to fluorescent resorufin, in cell work by metabolically active cells.

Sequence of c-KIT kinase (P10721 544-976): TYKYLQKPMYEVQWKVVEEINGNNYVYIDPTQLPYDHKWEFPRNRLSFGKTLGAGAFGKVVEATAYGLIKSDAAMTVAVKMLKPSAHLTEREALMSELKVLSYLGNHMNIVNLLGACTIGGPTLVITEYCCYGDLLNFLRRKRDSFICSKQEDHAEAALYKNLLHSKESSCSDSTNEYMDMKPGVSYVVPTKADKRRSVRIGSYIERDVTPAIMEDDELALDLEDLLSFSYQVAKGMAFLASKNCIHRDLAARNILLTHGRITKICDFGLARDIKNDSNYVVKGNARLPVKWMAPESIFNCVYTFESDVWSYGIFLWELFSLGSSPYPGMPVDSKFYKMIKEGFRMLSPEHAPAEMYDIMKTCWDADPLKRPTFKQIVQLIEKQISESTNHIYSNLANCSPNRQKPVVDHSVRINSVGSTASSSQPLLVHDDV
T1 sequence (P10721 26-976 K642E): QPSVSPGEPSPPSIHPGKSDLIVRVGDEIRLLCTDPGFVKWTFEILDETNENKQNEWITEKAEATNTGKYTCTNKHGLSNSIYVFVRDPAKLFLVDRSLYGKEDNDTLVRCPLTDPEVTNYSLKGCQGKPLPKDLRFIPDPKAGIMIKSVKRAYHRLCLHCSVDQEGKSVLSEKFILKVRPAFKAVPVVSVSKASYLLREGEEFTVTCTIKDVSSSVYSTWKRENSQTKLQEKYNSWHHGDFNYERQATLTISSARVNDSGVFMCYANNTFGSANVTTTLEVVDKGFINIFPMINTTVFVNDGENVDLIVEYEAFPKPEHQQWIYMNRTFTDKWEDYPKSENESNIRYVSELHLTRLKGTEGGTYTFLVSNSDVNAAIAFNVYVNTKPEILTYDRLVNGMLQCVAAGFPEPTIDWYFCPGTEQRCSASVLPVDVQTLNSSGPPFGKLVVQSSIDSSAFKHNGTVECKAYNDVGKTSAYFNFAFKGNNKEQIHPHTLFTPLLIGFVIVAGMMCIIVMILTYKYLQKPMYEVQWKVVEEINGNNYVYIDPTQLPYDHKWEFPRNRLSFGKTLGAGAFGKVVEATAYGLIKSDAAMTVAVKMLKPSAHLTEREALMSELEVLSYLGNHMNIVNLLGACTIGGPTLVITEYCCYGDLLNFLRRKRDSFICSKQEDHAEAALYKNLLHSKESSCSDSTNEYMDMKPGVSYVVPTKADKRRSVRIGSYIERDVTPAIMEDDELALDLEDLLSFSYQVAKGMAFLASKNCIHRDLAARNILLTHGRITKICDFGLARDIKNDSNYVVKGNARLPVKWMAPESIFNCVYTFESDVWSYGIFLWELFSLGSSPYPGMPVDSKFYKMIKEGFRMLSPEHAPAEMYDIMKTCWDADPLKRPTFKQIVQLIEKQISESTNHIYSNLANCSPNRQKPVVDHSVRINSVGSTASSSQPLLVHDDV

As for `CNc1cc2c(cn1)cc(-c1cc(NC(=O)Nc3cccc(F)c3)c(F)cc1Cl)c(=O)n2C(C)C` [Example 77, 1-(4-chloro-2-fluoro-5-(1-isopropyl-7-(methylamino)-2-oxo-1,2-dihydro-1,6-naphthyridin-3-yl)phenyl)-3-(3-fluorophenyl)urea], the IC50 was 10 to 100 nM in assay [1]; < 10 nM in assay [2]; 10 to 100 nM in assay [3]; 10 to 100 nM in assay [4]; < 10 nM in assay [5].
With `CCn1c(=O)c(-c2cc(NC(=O)Nc3ccccc3)c(F)cc2Cl)cc2cnc(NC(=O)OC)cc21` [Example 73, methyl (3-(2-chloro-4-fluoro-5-(3-phenylureido)phenyl)-1-ethyl-2-oxo-1,2-dihydro-1,6-naphthyridin-7-yl)carbamate], the IC50 in assay [1], in assay [2], in assay [3], in assay [4] and in assay [5] was 10 to 100 nM each time.
Regarding `CCn1c(=O)c(-c2cc(NC(=O)Nc3ccccc3)c(F)cc2C)cc2cnc(NC(=O)N(C)C)cc21` [Example 101, 3-(1-ethyl-3-(4-fluoro-2-methyl-5-(3-phenylureido)phenyl)-2-oxo-1,2-dihydro-1,6-naphthyridin-7-yl)-1,1-dimethylurea], the IC50 is > 1000 nM in assay [1]; 10 to 100 nM in assay [2]; 100 to 1000 nM in assay [3]; 10 to 100 nM in assay [4]; < 10 nM in assay [5].
Take `CNc1cc2c(cn1)cc(-c1cc(NC(=O)Nc3ccccc3)c(F)cc1Cl)c(=O)n2C(C)C` [Example 22, 1-(4-chloro-2-fluoro-5-(1-isopropyl-7-(methylamino)-2-oxo-1,2-dihydro-1,6-naphthyridin-3-yl)phenyl)-3-phenylurea]: the IC50 in assay [1] was 10 to 100 nM; in assay [2], < 10 nM; in assay [3], 10 to 100 nM; in assay [4], 10 to 100 nM; in assay [5], < 10 nM.
In the case of `CCn1c(=O)c(-c2cc(NC(=O)Nc3cccc(F)c3)c(F)cc2C)cc2cnc(N)cc21` [Example 58, 1-(5-(7-amino-1-ethyl-2-oxo-1,2-dihydro-1,6-naphthyridin-3-yl)-2-fluoro-4-methylphenyl)-3-(3-fluorophenyl)urea], the IC50 was 100 to 1000 nM in assay [1]; < 10 nM in assay [2]; 100 to 1000 nM in assay [3]; 10 to 100 nM in assay [4]; < 10 nM in assay [5].
For `CCn1c(=O)c(-c2cc(NC(=O)Nc3ccccc3)c(F)cc2Cl)cc2cnc(NC(C)=O)cc21` [Example 54, 1-(5-(7-acetamido-1-ethyl-2-oxo-1,2-dihydro-1,6-naphthyridin-3-yl)-4-chloro-2-fluorophenyl)-3-phenylurea], the IC50 was 10 to 100 nM in assay [1]; < 10 nM in assay [2]; 10 to 100 nM in assay [3]; 10 to 100 nM in assay [4]; < 10 nM in assay [5].
As to `CCn1c(=O)c(-c2cc(NC(=O)Nc3ccccc3)c(F)cc2Cl)cc2cnc(NC(=O)N3CC(O)C3)cc21` [Example 81, N-(3-(2-chloro-4-fluoro-5-(3-phenylureido)phenyl)-1-ethyl-2-oxo-1,2-dihydro-1,6-naphthyridin-7-yl)-3-hydroxyazetidine-1-carboxamide], the IC50 in assay [1] is 10 to 100 nM; in assay [2] it was < 10 nM; in assay [3] it was 10 to 100 nM; in assay [4], 10 to 100 nM; in assay [5] it was < 10 nM.
In the case of `CCn1c(=O)c(-c2cc(NC(=O)Nc3cccc4ccccc34)c(F)cc2Cl)cc2cnc(NC)cc21` [Example 6, 1-(4-chloro-5-(1-ethyl-7-(methylamino)-2-oxo-1,2-dihydro-1,6-naphthyridin-3-yl)-2-fluorophenyl)-3-(naphthalen-1-yl)urea], the IC50 was < 10 nM in assay [1]; < 10 nM in assay [2]; 10 to 100 nM in assay [3]; < 10 nM in assay [4]; 10 to 100 nM in assay [5].
`CCn1c(=O)c(-c2cc(NC(=O)Nc3cc(F)cc(F)c3)c(F)cc2Cl)cc2cnc(NC(C)=O)cc21` [Example 67, N-(3-(2-chloro-5-(3-(3,5-difluorophenyl)ureido)-4-fluorophenyl)-1-ethyl-2-oxo-1,2-dihydro-1,6-naphthyridin-7-yl)acetamide]: the IC50 in assay [1] was < 10 nM; in assay [2], 10 to 100 nM; in assay [3], 10 to 100 nM; in assay [4] it was < 10 nM; in assay [5] it was < 10 nM.
`CCn1c(=O)c(-c2cc(NC(=O)Nc3cccc(F)c3)c(F)cc2C)cc2cnc(NC)cc21` [Example 44, 1-(5-(1-ethyl-7-(methylamino)-2-oxo-1,2-dihydro-1,6-naphthyridin-3-yl)-2-fluoro-4-methylphenyl)-3-(3-fluorophenyl)urea]: the IC50 in assay [1] was 10 to 100 nM; in assay [2], < 10 nM; in assay [3], 10 to 100 nM; in assay [4] it was < 10 nM; in assay [5] it was < 10 nM.
As to `CCn1c(=O)c(-c2cc(NC(=O)Nc3ccccc3)c(F)cc2Br)cc2cnc(NCCOC)cc21` [Example 51, 1-(4-bromo-5-(1-ethyl-7-(2-methoxyethylamino)-2-oxo-1,2-dihydro-1,6-naphthyridin-3-yl)-2-fluorophenyl)-3-phenylurea], the IC50 in assay [1] was 100 to 1000 nM; in assay [2], 10 to 100 nM; in assay [3], 10 to 100 nM; in assay [4], 10 to 100 nM; in assay [5], < 10 nM.
Consider `CCn1c(=O)c(-c2cc(NC(=O)Nc3ccccc3)c(F)cc2Cl)cc2cnc(NC(=O)N(C)C)cc21` [Example 70, 3-(3-(2-chloro-4-fluoro-5-(3-phenylureido)phenyl)-1-ethyl-2-oxo-1,2-dihydro-1,6-naphthyridin-7-yl)-1,1-dimethylurea], for which the IC50 is 10 to 100 nM in assay [1]; < 10 nM in assay [2]; 10 to 100 nM in assay [3]; < 10 nM in assay [4]; < 10 nM in assay [5].
For `CCn1c(=O)c(-c2cc(NC(=O)Nc3csc4ccccc34)c(F)cc2C)cc2cnc(NC)cc21` [Example 59, 1-(benzo[b]thiophen-3-yl)-3-(5-(1-ethyl-7-(methylamino)-2-oxo-1,2-dihydro-1,6-naphthyridin-3-yl)-2-fluoro-4-methylphenyl)urea], the IC50 in assay [1], in assay [2], in assay [3], in assay [4] and in assay [5] was 10 to 100 nM throughout.
